Laboratory results from ChEMBL document CHEMBL1136689, “Inhibition of telomerase by BIBR 1532 and related analogues” (Bioorg Med Chem Lett, 2003).

Key:
[1] = target: T1, Telomerase reverse transcriptase (Homo sapiens, UniProt O14746); assay: Inhibitory activity against telomerase; ND: Not detected concentrations as high as 50 uM
[2] = target: T1, Telomerase reverse transcriptase; assay: Inhibitory activity against telomerase; ND: not detected concentrations as high as 50 uM
[3] = target: T1, Telomerase reverse transcriptase; assay: Inhibitory activity against telomerase

T1 sequence (O14746 whole entry): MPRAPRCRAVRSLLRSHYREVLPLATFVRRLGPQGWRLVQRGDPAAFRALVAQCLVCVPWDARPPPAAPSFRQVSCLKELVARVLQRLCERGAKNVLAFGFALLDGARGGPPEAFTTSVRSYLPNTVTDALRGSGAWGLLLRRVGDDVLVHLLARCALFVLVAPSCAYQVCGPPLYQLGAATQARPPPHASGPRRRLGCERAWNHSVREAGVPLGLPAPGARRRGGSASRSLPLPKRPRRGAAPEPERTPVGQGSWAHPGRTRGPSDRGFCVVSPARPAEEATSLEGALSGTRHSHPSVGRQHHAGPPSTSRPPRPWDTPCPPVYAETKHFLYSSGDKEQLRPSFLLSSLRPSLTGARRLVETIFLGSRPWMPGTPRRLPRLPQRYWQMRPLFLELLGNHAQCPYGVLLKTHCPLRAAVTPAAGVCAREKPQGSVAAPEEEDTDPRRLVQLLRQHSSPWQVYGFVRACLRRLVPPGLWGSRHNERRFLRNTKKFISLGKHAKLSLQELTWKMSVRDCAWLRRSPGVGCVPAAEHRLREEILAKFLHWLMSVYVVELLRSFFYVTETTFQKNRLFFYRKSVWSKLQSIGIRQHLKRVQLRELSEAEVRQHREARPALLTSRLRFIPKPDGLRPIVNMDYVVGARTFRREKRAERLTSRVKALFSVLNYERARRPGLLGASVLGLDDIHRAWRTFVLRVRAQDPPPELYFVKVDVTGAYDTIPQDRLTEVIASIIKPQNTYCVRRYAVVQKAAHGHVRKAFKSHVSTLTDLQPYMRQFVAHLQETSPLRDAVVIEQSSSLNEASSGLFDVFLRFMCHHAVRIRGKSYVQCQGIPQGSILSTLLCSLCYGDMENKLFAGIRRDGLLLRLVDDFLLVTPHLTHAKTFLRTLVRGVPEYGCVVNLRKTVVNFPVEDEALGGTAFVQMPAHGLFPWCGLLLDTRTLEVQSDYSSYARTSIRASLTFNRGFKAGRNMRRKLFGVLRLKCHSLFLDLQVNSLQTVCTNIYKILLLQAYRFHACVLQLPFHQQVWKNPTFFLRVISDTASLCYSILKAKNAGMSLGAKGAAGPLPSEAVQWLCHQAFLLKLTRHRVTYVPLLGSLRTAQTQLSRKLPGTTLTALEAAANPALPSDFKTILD

Row | IC50 [1] | SMILES | further results
1 | Inhibition not detected | CC(CC(=O)Nc1ccccc1C(=O)O)c1ccc2ccccc2c1 (configuration not stated) | 
2 | Inhibition not detected | COc1cc(/C=C(\Cl)C(=O)Nc2ccccc2C(=O)O)ccc1OCc1ccccc1 | 
3 | Inhibition not detected | COc1cc(CCC(=O)Nc2ccccc2C(=O)O)ccc1O | 
4 |  | CC(/C=C(\Cl)C(=O)Nc1ccccc1C(=O)O)c1ccccc1 (configuration not stated) | IC50 [2]: Inhibition not detected
5 | Inhibition not detected | C/C(=C(/Cl)C(=O)Nc1ccccc1C(=O)O)c1ccc2ccccc2c1 | 
6 |  | C/C(=C\C(=O)Nc1ccccc1C(=O)O)c1ccc2ccccc2c1 | IC50 [3]: 5 µM
7 |  | C/C(=C/C(=O)Nc1ccccc1C(=O)O)c1ccc2ccccc2c1 | IC50 [3]: 5 µM
